{
  "source": "the supplement of paper PMC10307832",
  "test_in_all_cases": "relative viability (nuclei count vs DMSO), 5 days (fraction); higher = more cells survive",
  "key": {"[1]": {"compound": "NCC(=O)Nc1ccc(-n2nc(C(F)(F)F)cc2-c2ccc3c(ccc4ccccc43)c2)cc1 + Nc1ncn([C@H]2C[C@H](O)[C@@H](CO)O2)c(=O)n1 [Decitabine] (partner 2 µM)", "summary_of_the_method": "(§1)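 After 5 days of treatment, lung cancer cells in 1536-well plates were fixed and stained in a single step (final 0.05% Triton X-100, 1% formaldehyde, 1 ug/ml Hoechst) and their nuclei counted on 4× images. Treatment had been applied by pin tool the day after seeding as one drug alone or as a fixed anchor-drug dose with five library-drug doses (not always all listed) in √10 steps. Relative viability is the nuclei count of treated wells divided by that of vehicle wells, and values are medians of duplicate plates.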"}, "[2]": {"compound": "C1CSC2=C(C(=O)N1)SC3=C2C=C(C=C3)O [kb NB 142-70] + CS(=O)(=O)N1CCN(Cc2cc3nc(-c4cccc5[nH]ncc45)nc(N4CCOCC4)c3s2)CC1 [Pictilisib] (partner 1 µM)", "summary_of_the_method": "as §1"}, "[3]": {"compound": "C1CSC2=C(C(=O)N1)SC3=C2C=C(C=C3)O [kb NB 142-70] + C[C@@H](Oc1cc(-c2cnn(C3CCNCC3)c2)cnc1N)c1c(Cl)ccc(F)c1Cl [Crizotinib] (partner 1 µM)", "summary_of_the_method": "as §1"}, "[4]": {"compound": "NCC(=O)Nc1ccc(-n2nc(C(F)(F)F)cc2-c2ccc3c(ccc4ccccc43)c2)cc1 + CC(=O)Nc1cccc(-n2c(=O)n(C3CC3)c(=O)c3c(Nc4ccc(I)cc4F)n(C)c(=O)c(C)c32)c1 [Trametinib] (partner 0.02 µM)", "summary_of_the_method": "as §1"}},
  "data": [
    {"cell line": "UMC-11", "values": [
      {"measurement": "relative viability", "setting": "[1]; first compound 0.02 µM", "value": 0.63},
      {"measurement": "relative viability", "setting": "[1]; first compound 0.06325 µM", "value": 0.593},
      {"measurement": "relative viability", "setting": "[1]; first compound 0.2 µM", "value": 0.557},
      {"measurement": "relative viability", "setting": "[1]; first compound 0.6325 µM", "value": 0.539},
      {"measurement": "relative viability", "setting": "[1]; first compound 2 µM", "value": 0.701},
      {"measurement": "relative viability", "setting": "[2]; first compound 0.1 µM", "value": 0.83},
      {"measurement": "relative viability", "setting": "[2]; first compound 1 µM", "value": 0.719},
      {"measurement": "relative viability", "setting": "[2]; first compound 3.162 µM", "value": 0.44},
      {"measurement": "relative viability", "setting": "[3]; first compound 0.1 µM", "value": 0.698},
      {"measurement": "relative viability", "setting": "[3]; first compound 1 µM", "value": 0.601},
      {"measurement": "relative viability", "setting": "[3]; first compound 3.162 µM", "value": 0.277},
      {"measurement": "relative viability", "setting": "[4]; first compound 0.02 µM", "value": 0.645},
      {"measurement": "relative viability", "setting": "[4]; first compound 0.06325 µM", "value": 0.85},
      {"measurement": "relative viability", "setting": "[4]; first compound 0.2 µM", "value": 0.751},
      {"measurement": "relative viability", "setting": "[4]; first compound 0.6325 µM", "value": 0.773},
      {"measurement": "relative viability", "setting": "[4]; first compound 2 µM", "value": 0.747}
    ]}
  ]
}
